Data as given in patent US10940240B2, “Catheter locking solution and catheter locking therapy” (Medical Components, Inc., priority 2016, dated 2021).

Tested on: Staphylococcus aureus CIP 65.25 (methicillin resistant)
Experiment: anti-biofilm assay on 24 h biofilms formed on Chronoflex catheter segments in microfermentors
Format: cell-based
Conditions: for effect in lysing the bacteria compared with 15 v/v % EtOH: EtOH alone; for number of viable cells on catheter segment (Moyenne): biofilm on catheter segment exposed to solution for 24 hours at 37° C., triplicate, limit of detection 10 CFU per KT segment; for effect on bacterial survival / lysis of bacterial cells: biofilm exposed 24 hours at 37° C., complete lysis = under the threshold of detection (10 CFU per KT segment)
Protocol: For example, preliminary assay testing of anti-biofilm properties of a TCEA solution comprising a 10.0 w/v % concentration of trisodium citrate at and 15.0, 20.0 and 25.0 v/v % concentrations of ethyl alcohol (i.e., ethanol or EtOH) were conducted. The testing was performed in the following manner.
Ethanol 15%, 20% and 25% (v/v)+trisodium citrate 10% (w/v)
Controls: Ethanol 15%, 20% and 25% • Trisodium citrate 10% • Water for injection The material tested were segments, each 1 centimeter long, of sterile catheters Chronoflex (“catheter segments”). The strains used were Staphylococcus aureus CIP 65.25 (methicillin resistant).
Biofilms were formed in aerated microfermentors with catheter segments fixed onto an internal removable glass slide of the microfermentors. Strains from frozen stocks were cultivated in Trypticase Soja broth (“TSB”). An inoculum of 10^8 cells was used to inoculate microfermentors containing the catheter segments. A continuous flow of 54 milliliters per hour (“mL/h”) of TSB and constant aeration with sterile pressed air at 0.3 bar were used to obtain continuous flow-through culture conditions. After 24 hours of incubation, the catheter segments were removed from the incubator and separated from their respective microfermentor device. Each catheter segment was then carefully rinsed in 1 mL of saline.
To determine the number of viable cells within the biofilms formed onto the catheter segments before being subjected to or made to be in contact with the test solutions (i.e., before treatment), the biofilms (triplicate for each strain) were resuspended in TSB by sonication and vortexing. Serial dilutions of the resulting suspensions were performed and plated onto appropriate agar plates to determine the number of viable cells after overnight incubation at 37 degrees Celsius (“° C.”).
In parallel, catheter segments to be tested were placed in a tube containing 1 mL of the different lock solutions: (i) ethanol at 15%, 20% and 25% (vol/vol); (ii) trisodium citrate at 10% (vol/vol); (iii) ethanol/tri sodium citrate mixing solutions (15%-10%, 20%-10%, 25%-10% (vol/vol)), wherein ethanol concentrations were 15%, 20%, and 25%, and trisodium citrate concentration was 10%; and (iv) water for injection as control. For every organism, the experiments were repeated in triplicate, and during each treatment assay catheter segments were exposed to the different solutions for 24 hours at 37° C. Subsequently, the catheter segments were removed, rinsed once with saline, and the number of adherent viable microorganisms determined, as described above. In FIG. 1, the number of viable cells is expressed as Colony Forming Unit (“CFU”), and the bacteria count is expressed as a decimal logarithm, log 10. (Note: FIG. 1 expresses the CFU as UFC, which is an acronym for unite formant colonie and is the same unit of measure as CFU.). The limit of detection in the experimental conditions is 10 CFU per KT segment, thus the threshold of detection is 10 CFU per KT segment. KT is a catheter sample used during testing, and its length can range from 3 to 5 centimeters. A KT can be a specimen of a catheter that have been cut (1 meter long usually) and placed into a microfermentor apparatus so that biofilms are formed at a surface of the catheter. Once the biofilm is formed and place into contact with the catheter lock solution to be tested, a measured the number of bacterial viable cells still present at the surface of the catheter is obtained. The limit of detection is 10 Colony Forming Units per specimen of catheter.
During the study, the disclosed catheter locking solution had been tested to ascertain whether it can eradication viable bacterial and prevent regrowth of biofilm. […] The catheter locking solution had been tested against Staphylococcus aureus (methicillin resistant).

Compound	effect in lysing the bacteria compared with 15 v/v % EtOH	number of viable cells on catheter segment (Moyenne) [CFU]	effect on bacterial survival / lysis of bacterial cells (listed as EtOH alone (at 15 v/v %))	effect on bacterial survival / lysis of bacterial cells (listed as EtOH alone, at 15 v/v % concentration)	effect on bacterial survival / lysis of bacterial cells (listed as Ethyl alcohol at a concentration of 15.0 v/v %)	bacterial cells after treatment (decreased from 1.00 E+07) (preliminary in vitro testing)	effect on bacterial survival / lysis of bacterial cells
ethyl alcohol [EtOH 20% (v/v)]	significantly greater effect in lysing the bacteria	1.00E+01					
ethyl alcohol [EtOH 25% (v/v)]	significantly greater effect in lysing the bacteria	1.00E+01					
ethyl alcohol [EtOH 15% (v/v)]		2.12E+02	did not lyse all the bacterial cells	did not lyse all the bacterial cells	did not lyse all bacterial cells	1.00E+02	
O=C([O-])CC(O)(CC(=O)[O-])C(=O)[O-].[Na+].[Na+].[Na+] [citrate 10% (m/v), trisodium citrate]		3.64E+06					no effect on the bacterial survival
